Measurements: patent publication US7012083B2, “Compounds useful in therapy” (Pfizer Inc., priority 1999, dated 2006)

Tested on: hind leg scratching behaviour induced by 5-methoxytryptamine hydrochloride
Experiment: Inhibition of hind leg scratching behaviour induced in rats by a pruritogenic agent
Type: in vivo, Male Wistar rats
Settings: rat, pruritogen 5-methoxytryptamine hydrochloride 4 mg/3 mL/kg s.c.; test compound s.c. in aqueous micelle formulation; scratching score over 25 minutes
Procedure: The compounds of the invention are evaluated for their activity as antipruritic agents by measuring their ability to inhibit the hind leg scratching behaviour induced in rats by the administration of a known pruritogenic agent. These studies are based on the procedure described by Berendsen and Broekkamp in the European Journal of Pharmacology, 1991, 194, 201. The test is performed as follows: • Male Wistar rats (approximately 150 g body weight) are challenged with a pruritogen by subcutaneous injection of 5-methoxytryptamine hydrochloride (4 mg/3 mL/kg) dissolved in physiological saline into the scruff of the neck. At this dose a constant and quantifiable hindleg scratching response lasting up to 90 minutes is obtained. • The test compound is administered to the test animals by subcutaneous injection in an aqueous micelle formulation. The test compound is prepared in the following manner. […] The compounds can be administered pre- or post-challenge or may be administered at the same time as the pruritogenic challenge. • After the pruritogen challenge has been administered, hindleg scratching is scored for each animal by recording the presence or absence of scratching during each 30 second interval as 1 or 0 scored respectively. […]

CCCCCCN1CC[C@@](C)(c2cccc(OC(=O)NC)c2)[C@H](C)C1 (racemic) [Example 2, (±)-3-(1-Hexyl-trans-3,4-dimethyl-4-piperidinyl)phenyl methylcarbamate]
anti-pruritic activity: found to display anti-pruritic activity
